Usually IC50 stands for the concentration needed to halve the response being measured.

Consider 31 molecules from patent US8927715B2, “Inhibitors of 11β-hydroxysteroid dehydrogenase type 1” (Vitae Pharmaceuticals, Inc., priority 2006, dated 2015).

For one assay, the target named is T1, human 11β-HSD1 (Homo sapiens, UniProt P28845). As to the kind of experiment: Scintillation Proximity Assay: inhibition of purified 11β-HSD1 (Biological Test Example 1). It is filed as biochemical. On the set-up: made in house; host or cells: E. coli. The note with it: purified recombinant 11β-HSD1, SPA; read-out: Biological Test Example 1 (IC50 class). The method, then:
The inhibition of purified 11β-HSD1 by compounds of Formula I or I* is measured using a Scintillation Proximity Assay. All reactions are carried out at room temperature in 96 well flexible Microbeta reaction plates. First, 1 μL of a 0.1 mM solution of a compound of Formula I or I* is mixed in DMSO diluted in half-log increments (8 points) starting at 1 μM final concentration. To this dot is added 50 μL of substrate solution (50 mM HEPES, pH 7.4, 100 mM KCl, 5 mM NaCl, 2 mM MgCl2 containing 20 μM ^3H cortisone, 1 mM NADPH). […] The reaction is then incubated for 90 minutes, and stopped by adding 50 μl of SPA bead mix (18-β-glycyrrhetinic acid, 10 μM final, 5 mg/ml protein A coated YSi SPA beads, and 1 μg/ml α-cortisol antibody (East Coast Biologics)). The plate is shaken for 120 minutes, and the radioactivity corresponding to ^3H cortisol is measured on a Wallac Microbeta.
Target sequence in this assay (P28845 whole entry, species assumed): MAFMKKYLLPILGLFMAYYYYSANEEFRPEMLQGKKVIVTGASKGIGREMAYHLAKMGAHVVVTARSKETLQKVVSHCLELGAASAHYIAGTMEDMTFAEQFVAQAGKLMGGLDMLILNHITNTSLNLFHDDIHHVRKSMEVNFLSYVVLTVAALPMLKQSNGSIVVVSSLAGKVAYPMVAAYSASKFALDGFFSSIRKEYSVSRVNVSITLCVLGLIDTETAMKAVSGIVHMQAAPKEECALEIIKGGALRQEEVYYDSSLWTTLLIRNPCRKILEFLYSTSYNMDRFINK
Take `CC(=O)N1Cc2ccccc2C2(CCN(C(=O)NC3C4CC5CC(C4)CC3C5)CC2)C1` (stereo not drawn) [Example 31, 2-Acetyl-N-(2-adamantyl)-2,3-dihydro-1H-spiro[isoquinoline-4,4′-piperidine]-1′-carboxamide]: the IC50 was less than 50 nM.
Same read-out and setting: the result for “(±)-2-(1′-(Cyclohexylcarbamoyl)spiro[chroman-2,4′-piperidine]-4-yl)acetic acid [Example 14]” reads 50 to 1000 nM; that for `CC(C)(C)OC(=O)N1Cc2ccccc2C2(CCN(C(=O)NC3C4CC5CC(C4)CC3C5)CC2)C1` (stereo not drawn) [Example 29, Tert-butyl 1′-((2-adamantyl)carbamoyl)-1H-spiro[isoquinoline-4,4′-piperidine]-2(3H)-carboxylate], less than 50 nM; that for `CNC(=O)CC1CC2(CCN(C(=O)OC3C4CC5CC(C4)CC3C5)CC2)c2ccccc21` (racemic) [Example 26, (±)-2-Adamantyl 3-(2-(methylamino)-2-oxoethyl)-2,3-dihydrospiro[indene-1,4′-piperidine]-1′-carboxylate], less than 50 nM.
Consider `O=C(O)C1CC2(CCN(C(=O)NC3C4CC5CC(C4)CC3C5)CC2)c2ccccc21` (racemic) [Example 12, (±)-1′-((2-Adamantyl)carbamoyl)-2,3-dihydrospiro[indene-1,4′-piperidine]-3-carboxylic acid], for which the IC50 is less than 50 nM.
As for “(±)-Ethyl 1′-(cyclohexylcarbamoyl)spiro[chroman-2,4′-piperidine]-4-carboxylate [Example 17]”, the IC50 was in the range of 50 to 1000 nM.
Still for that read-out and setting: in the case of `CC(C)(C)OC(=O)N1CC2(CCN(C(=O)NC3C4CC5CC(C4)CC3C5)CC2)c2ccccc21` (stereo not drawn) [Example 1, Tert-butyl 1′-((2-adamantyl)carbamoyl)spiro[indoline-3,4′-piperidine]-1-carboxylate] it was less than 50 nM.
Same read-out and setting: in the case of `O=C(OC1C2CC3CC(C2)CC1C3)N1CCC2(CC1)CNc1ccc(F)cc12` (stereo not drawn) [Example 21, 2-Adamantyl 5-fluorospiro[indoline-3,4′-piperidine]-1′-carboxylate] it was less than 50 nM; in that of `CC(=O)N1CC2(CCN(C(=O)NC3C4CC5CC(C4)CC3C5)CC2)c2ccccc21` (stereo not drawn) [Example 7, 1-Acetyl-N-(2-adamantyl)spiro[indoline-3,4′-piperidine]-1′-carboxamide], less than 50 nM; in that of `O=C(O)C1=CC2(CCN(C(=O)NC3C4CC5CC(C4)CC3C5)CC2)c2ccccc21` (stereo not drawn) [Example 11, 1′-((2-Adamantyl)carbamoyl)spiro[indene-1,4′-piperidine]-3-carboxylic acid], less than 50 nM.
Take `O=C(OC1C2CC3CC(C2)CC1C3)N1CCC2(CC1)OCc1ccccc12` (stereo not drawn) [Example 84, 2-Adamantyl 3H-spiro[isobenzofuran-1,4′-piperidine]-1′-carboxylate]: the IC50 was less than 50 nM.
On the same count and under the same terms, in the case of `Cc1ccc2c(c1)C1(CCN(C(=O)OC3C4CC5CC(C4)CC3C5)CC1)CN2C(=O)OC(C)(C)C` (stereo not drawn) [Example 130, 1-Tert-butyl 1′-(2-adamantyl) 5-methylspiro[indoline-3,4′-piperidine]-1,1′-dicarboxylate] it was 50 to 1000 nM.
The same measure, in the same setting: in the case of `CS(=O)(=O)N1CC2(CCN(C(=O)NC3C4CC5CC(C4)CC3C5)CC2)c2ccccc21` (stereo not drawn) [Example 19, N-(2-Adamantyl)-1-(methylsulfonyl)spiro[indoline-3,4′-piperidine]-1′-carboxamide] it was less than 50 nM; in that of `Cc1ccc2c(c1)C1(CCN(C(=O)OC3C4CC5CC(C4)CC3C5)CC1)CN2` (stereo not drawn) [Example 22, 2-Adamantyl 5-methylspiro[indoline-3,4′-piperidine]-1′-carboxylate], less than 50 nM; in that of `CC(C)(C)OC(=O)N1CC2(CCN(C(=O)OC3C4CC5CC(C4)CC3C5)CC2)c2ccccc21` (stereo not drawn) [Example 128, 1-Tert-butyl 1′-(2-adamantyl)spiro[indoline-3,4′-piperidine]-1,1′-dicarboxylate], 50 to 1000 nM.
Same read-out and setting: in the case of “(±)-Ethyl 1′-(cyclohexylcarbamoyl)-2,3-dihydrospiro[indene-1,4′-piperidine]-3-carboxylate [Example 16]” it was less than 50 nM.
On to `O=C(O)CCCC(=O)N1Cc2ccccc2C2(CCN(C(=O)NC3C4CC5CC(C4)CC3C5)CC2)C1` (stereo not drawn) [Example 95, 5-(1′(2-Adamantylcarbamoyl)-1H-spiro[isoquinoline-4,4′-piperidine]-2(3H)-yl)-5-oxopentanoic acid], for which the IC50 fell in the range of 50 to 1000 nM.
On to `CC(C)(C)OC(=O)N1CC2(CCN(C(=O)OC3C4CC5CC(C4)CC3C5)CC2)c2cc(F)ccc21` (stereo not drawn) [Example 129, 1-Tert-butyl 1′-(2-adamantyl) 5-fluorospiro[indoline-3,4′-piperidine]-1,1′-dicarboxylate], for which the IC50 lay in the range of 50 to 1000 nM.
The same measure, in the same setting: the result for `O=C(O)CC1CC2(CCN(C(=O)OC3C4CC5CC(C4)CC3C5)CC2)c2ccccc21` (stereo not drawn) [Example 25, 2-(1′-((2-Adamantyloxy)carbonyl)-2,3-dihydrospiro[indene-1,4′-piperidine]-3-yl)acetic acid] reads less than 50 nM.
On the same count and under the same terms, in the case of `O=C(NC1C2CC3CC(C2)CC1C3)N1CCC2(CC1)CNc1ccccc12` (stereo not drawn) [Example 2, N-(2-Adamantyl)spiro[indoline-3,4′-piperidine]-1′-carboxamide] it was less than 50 nM; in that of `O=C(OC1C2CC3CC(C2)CC1C3)N1CCC2(CC1)CNc1ccccc12` (stereo not drawn) [Example 20, 2-Adamantyl spiro[indoline-3,4′-piperidine]-1′-carboxylate], less than 50 nM; in that of `CCOC(=O)CC1CC2(CCN(C(=O)NC3C4CC5CC(C4)CC3C5)CC2)Oc2ccccc21` (racemic) [Example 18, (±)-Ethyl 2-1′-((2-adamantyl)carbamoyl)spiro[chroman-2,4′-piperidine]-4-yl)acetate], 50 to 1000 nM.
With `O=C(O)C1CC2(CCN(C(=O)NC3C4CC5CC(C4)CC3C5)CC2)Oc2ccccc21` (racemic) [Example 13, (±)-1′-((2-Adamantyl)carbamoyl)spiro[chroman-2,4′-piperidine]-4-carboxylic acid], the IC50 was in the range of 50 to 1000 nM.
Still for that read-out and setting: the result for `O=C(NC1C2CC3CC(C2)CC1C3)N1CCC2(CC1)CNCc1ccccc12` (stereo not drawn) [Example 30, N-(2-Adamantyl)-2,3-dihydro-1H-spiro[isoquinoline-4,4′-piperidine]-1′-carboxamide] reads less than 50 nM; that for `CC(C)(C)OC(=O)N1CCC2(CCN(C(=O)NC3C4CC5CC(C4)CC3C5)CC2)C1` (stereo not drawn) [Example 9, tert-Butyl 8-((2-adamantyl)carbamoyl)-2,8-diazaspiro[4.5]decane-2-carboxylate], 50 to 1000 nM.
As for `CC(C)(C)OC(=O)N1CCC2(CCCN(C(=O)NC3C4CC5CC(C4)CC3C5)C2)C1` (racemic) [Example 10, (±)-tert-Butyl 7((2-adamantyl)carbamoyl)-2,7-diazaspiro[4.5]decane-2-carboxylate], the IC50 was in the range of 50 to 1000 nM.
`CC(=O)N1CC2(CCN(C(=O)OC3C4CC5CC(C4)CC3C5)CC2)c2ccccc21` (stereo not drawn) [Example 23, 2-Adamantyl 1-acetylspiro[indoline-3,4′-piperidine]-1′-carboxylate]: the IC50 is less than 50 nM.
In the case of `COC(=O)CC1CC2(CCN(C(=O)OC3C4CC5CC(C4)CC3C5)CC2)c2ccccc21` (racemic) [Example 24, (±)-2-Adamantyl 3-(2-methoxy-2-oxoethyl)-2,3-dihydrospiro[indene-1,4′-piperidine]-1′-carboxylate], the IC50 was less than 50 nM.
In the case of `CCOC(=O)C1=CC2(CCN(C(=O)NC3C4CC5CC(C4)CC3C5)CC2)c2ccccc21` (stereo not drawn) [Example 15, Ethyl 1′-((2-adamantyl)carbamoyl)spiro[indene-1,4′-piperidine]-3-carboxylate], the half-inhibitory concentration (IC50) was less than 50 nM.
On the same count and under the same terms, in the case of `CC(C)(C)OC(=O)N1CCC2(CCN(C(=O)NC3C4CC5CC(C4)CC3C5)CC2)CC1` (stereo not drawn) [Example 8] it was 50 to 1000 nM.

A further assay has as its target T1, human 11β-HSD1. The assay can be described thus: Inhibition of a microsomal preparation of 11β-HSD1, SPA (Biological Test Example 2). The format is biochemical. On the set-up: expressed in transfected cells; host or cells: CHO cells (microsomes). The conditions noted are these: read-out: Biological Test Example 2 (IC50 class). In a few lines:
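[3H]cortisol formation quantified by scintillation proximity with anti-cortisol antibody on protein A beads, reaction quenched by 10 nM 18β-glycyrrhetinic acid. Enzyme source: CHO-cell microsomes expressing human 11β-HSD1, 10-20 μg/ml protein, incubated 90 min at room temperature following 10 min pre-incubation.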
Target sequence in this assay (P28845 whole entry): as the sequence (P28845 whole entry, species assumed) above
Consider `CC(=O)N1Cc2ccccc2C2(CCN(C(=O)NC3C4CC5CC(C4)CC3C5)CC2)C1` (stereo not drawn) [Example 31, 2-Acetyl-N-(2-adamantyl)-2,3-dihydro-1H-spiro[isoquinoline-4,4′-piperidine]-1′-carboxamide], for which the 50% inhibitory concentration (IC50) was less than 50 nM.
Take `O=C(OC1C2CC3CC(C2)CC1C3)N1CCC2(CC1)OCc1ccccc12` (stereo not drawn) [Example 84, 2-Adamantyl 3H-spiro[isobenzofuran-1,4′-piperidine]-1′-carboxylate]: the IC50 is less than 50 nM.
Same read-out and setting: in the case of `O=C(O)CCCC(=O)N1Cc2ccccc2C2(CCN(C(=O)NC3C4CC5CC(C4)CC3C5)CC2)C1` (stereo not drawn) [Example 95, 5-(1′(2-Adamantylcarbamoyl)-1H-spiro[isoquinoline-4,4′-piperidine]-2(3H)-yl)-5-oxopentanoic acid] it was less than 50 nM.
The same measure, in the same setting: the result for `O=C(NC1C2CC3CC(C2)CC1C3)N1CCC2(CC1)CNCc1ccccc12` (stereo not drawn) [Example 30, N-(2-Adamantyl)-2,3-dihydro-1H-spiro[isoquinoline-4,4′-piperidine]-1′-carboxamide] reads less than 50 nM; that for `CC(=O)N1CC2(CCN(C(=O)OC3C4CC5CC(C4)CC3C5)CC2)c2ccccc21` (stereo not drawn) [Example 23, 2-Adamantyl 1-acetylspiro[indoline-3,4′-piperidine]-1′-carboxylate], less than 50 nM.
As to `CC(C)(CO)C1CC2(CCN(C(=O)NC3C4CC5CC(C4)CC3C5)CC2)c2c(Br)cccc21` (racemic) [Example 123, (±)-7-Bromo-N-(2-adamantyl)-3-(1-hydroxy-2-methylpropan-2-yl)-2,3-dihydrospiro[indene-1,4′-piperidine]-1′-carboxamide], the IC50 is less than 50 nM.
